Test results: ChEMBL document CHEMBL1250451, “Mechanistic insights into a Ca2+-dependent family of alpha-mannosidases in a human gut symbiont” (Nat Chem Biol, 2010)

Legend:
Assay type in all cases: protein assay
[1] = molecular target: T1, Alpha-1,2-mannosidase (BT_3990) (Bacteroides thetaiotaomicron) (UniProt Q8A0N1); assay: Activity of Bacteroides thetaiotaomicron GH92 alpha-mannosidase 3990 assessed as recovery of enzyme activity at 1 mM in presence of 7 mM Zn(2+) ions and in presence of 5 mM EDTA in 100 mM pH 7 MOPS buffer relative to enzyme activity in presence of calcium
T1 sequence (whole entry): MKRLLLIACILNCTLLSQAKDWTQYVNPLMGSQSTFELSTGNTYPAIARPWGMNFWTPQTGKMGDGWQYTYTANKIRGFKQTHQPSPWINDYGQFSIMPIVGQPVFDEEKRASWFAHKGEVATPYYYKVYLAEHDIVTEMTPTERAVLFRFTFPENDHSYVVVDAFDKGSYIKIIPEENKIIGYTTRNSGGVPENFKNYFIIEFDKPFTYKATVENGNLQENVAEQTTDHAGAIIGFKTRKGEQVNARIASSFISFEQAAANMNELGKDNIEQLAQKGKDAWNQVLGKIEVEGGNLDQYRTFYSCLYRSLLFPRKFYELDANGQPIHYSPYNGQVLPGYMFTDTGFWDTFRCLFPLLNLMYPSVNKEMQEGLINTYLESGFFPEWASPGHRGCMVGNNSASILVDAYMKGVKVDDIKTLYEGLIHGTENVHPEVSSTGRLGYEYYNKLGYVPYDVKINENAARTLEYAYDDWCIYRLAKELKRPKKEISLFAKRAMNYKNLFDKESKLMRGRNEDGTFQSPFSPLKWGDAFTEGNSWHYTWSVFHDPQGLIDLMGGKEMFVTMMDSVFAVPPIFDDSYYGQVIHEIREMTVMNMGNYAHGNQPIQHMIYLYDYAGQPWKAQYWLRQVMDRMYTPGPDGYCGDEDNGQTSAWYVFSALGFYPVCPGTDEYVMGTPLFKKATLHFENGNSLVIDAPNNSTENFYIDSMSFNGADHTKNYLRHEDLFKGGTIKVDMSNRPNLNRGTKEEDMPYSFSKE

[2] = molecular target: T1, Alpha-1,2-mannosidase (BT_3990) (Bacteroides thetaiotaomicron); assay: Activity of Bacteroides thetaiotaomicron GH92 alpha-mannosidase 3990 assessed as recovery of enzyme activity at 1 mM in presence of 7 mM Sc(3+) ions and in presence of 5 mM EGTA in 100 mM pH 7 MOPS buffer relative to enzyme activity in presence of calcium
[3] = molecular target: T2, Alpha-1,2-mannosidase (BT_2199) (Bacteroides thetaiotaomicron) (UniProt Q8A5N9); assay: Activity of Bacteroides thetaiotaomicron GH92 alpha-mannosidase 2199 assessed as recovery of enzyme activity at 1 mM in presence of 7 mM Ti(3+) ions and in presence of 5 mM EGTA in 100 mM pH 7 MOPS buffer relative to enzyme activity in presence of calcium
T2 sequence (whole entry): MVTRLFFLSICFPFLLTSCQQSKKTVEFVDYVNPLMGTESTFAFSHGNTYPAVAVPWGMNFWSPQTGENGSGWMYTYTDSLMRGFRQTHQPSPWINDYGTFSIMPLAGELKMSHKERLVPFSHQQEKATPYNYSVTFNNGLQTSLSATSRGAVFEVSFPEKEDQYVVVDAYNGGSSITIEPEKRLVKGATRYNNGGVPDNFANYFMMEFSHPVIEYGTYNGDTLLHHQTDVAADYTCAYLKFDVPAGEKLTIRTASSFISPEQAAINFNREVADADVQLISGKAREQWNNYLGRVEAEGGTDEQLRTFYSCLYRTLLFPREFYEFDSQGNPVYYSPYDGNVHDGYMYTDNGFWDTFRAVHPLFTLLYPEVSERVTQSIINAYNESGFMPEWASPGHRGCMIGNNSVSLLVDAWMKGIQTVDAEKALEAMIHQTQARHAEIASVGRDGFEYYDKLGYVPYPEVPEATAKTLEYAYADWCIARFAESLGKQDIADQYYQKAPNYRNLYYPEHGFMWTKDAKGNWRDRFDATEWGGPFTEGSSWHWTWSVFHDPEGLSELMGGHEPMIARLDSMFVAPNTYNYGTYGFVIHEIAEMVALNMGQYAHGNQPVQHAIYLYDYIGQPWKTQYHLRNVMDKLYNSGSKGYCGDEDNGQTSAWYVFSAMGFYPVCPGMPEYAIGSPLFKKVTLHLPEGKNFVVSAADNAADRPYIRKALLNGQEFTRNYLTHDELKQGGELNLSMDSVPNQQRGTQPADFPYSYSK

[4] = molecular target: T1, Alpha-1,2-mannosidase (BT_3990) (Bacteroides thetaiotaomicron); assay: Activity of Bacteroides thetaiotaomicron GH92 alpha-mannosidase 3990 assessed as recovery of enzyme activity at 1 mM in presence of 7 mM Sr(2+) ions and in presence of 5 mM EGTA in 100 mM pH 7 MOPS buffer relative to enzyme activity in presence of calcium
[5] = molecular target: T1, Alpha-1,2-mannosidase (BT_3990) (Bacteroides thetaiotaomicron); assay: Activity of Bacteroides thetaiotaomicron GH92 alpha-mannosidase 3990 assessed as recovery of enzyme activity at 1 mM in presence of 7 mM Be(2+) ions and in presence of 5 mM EGTA in 100 mM pH 7 MOPS buffer relative to enzyme activity in presence of calcium
[6] = molecular target: T1, Alpha-1,2-mannosidase (BT_3990) (Bacteroides thetaiotaomicron); assay: Activity of Bacteroides thetaiotaomicron GH92 alpha-mannosidase 3990 assessed as recovery of enzyme activity at 1 mM in presence of 7 mM Ca(2+) ions and in presence of 5 mM EGTA in 100 mM pH 7 MOPS buffer relative to enzyme activity in presence of calcium
[7] = molecular target: T2, Alpha-1,2-mannosidase (BT_2199) (Bacteroides thetaiotaomicron); assay: Activity of Bacteroides thetaiotaomicron GH92 alpha-mannosidase 2199 assessed as recovery of enzyme activity at 1 mM in absence of metal and in presence of 5 mM EDTA in 100 mM pH 7 MOPS buffer relative to enzyme activity in presence of calcium
[8] = molecular target: T2, Alpha-1,2-mannosidase (BT_2199) (Bacteroides thetaiotaomicron); assay: Activity of Bacteroides thetaiotaomicron GH92 alpha-mannosidase 2199 assessed as recovery of enzyme activity at 1 mM in presence of 7 mM Be(2+) ions and in presence of 5 mM EGTA in 100 mM pH 7 MOPS buffer relative to enzyme activity in presence of calcium
[9] = molecular target: T2, Alpha-1,2-mannosidase (BT_2199) (Bacteroides thetaiotaomicron); assay: Activity of Bacteroides thetaiotaomicron GH92 alpha-mannosidase 2199 assessed as recovery of enzyme activity at 1 mM in presence of 7 mM V(3+) ions and in presence of 5 mM EGTA in 100 mM pH 7 MOPS buffer relative to enzyme activity in presence of calcium
[10] = molecular target: T1, Alpha-1,2-mannosidase (BT_3990) (Bacteroides thetaiotaomicron); assay: Activity of Bacteroides thetaiotaomicron GH92 alpha-mannosidase 3990 assessed as recovery of enzyme activity at 1 mM in presence of 7 mM Mg(2+) ions and in presence of 5 mM EDTA in 100 mM pH 7 MOPS buffer relative to enzyme activity in presence of calcium

- Activity [1]: 0%
- Activity [2]: 0%
- Activity [3]: 0%
- Activity [4]: 12%
- Activity [5]: 0%
- Activity [6]: 100%
- Activity [7]: 0%
- Activity [8]: 0%
- Activity [9]: 0%
- Activity [10]: 0%
SMILES: O=[N+]([O-])c1ccc(O[C@H]2O[C@H](CO)[C@@H](O)[C@H](O)[C@@H]2O)cc1
